Tested on: phosphoinositide/Ca2+ pathway
Assay: Direct membrane current responses of oocytes to fenamates
Type: cell-based, Xenopus laevis
Conditions: 10-100 μM; in some oocytes

Row | SMILES | direct membrane current responses
1 | Cc1cccc(Nc2ccccc2C(=O)O)c1C [Mefenamic acid] | able to elicit membrane current responses
2 | Cc1ccc(Cl)c(Nc2ccccc2C(=O)O)c1Cl [Meclofenamate, Meclofenamic acid] | able to elicit membrane current responses
